Assay results: PubChem BioAssay (NCI)
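Test compounds were applied to cells in 96-well plates for 48 hours at 5 doses. At the TGI there is no net growth.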

Tests used:
Assay in all cases: DTP human tumour cell line panel, 48 h
[1] = tested on: SF-268 CNS
[2] = tested on: NCI-H522 lung
[3] = tested on: MOLT-4 leukemia
[4] = tested on: RXF-631 renal
[5] = tested on: UACC-62 melanoma
[6] = tested on: KM12 colon
[7] = tested on: DLD-1 colon
[8] = tested on: HT29 colon
[9] = tested on: NCI-H226 lung
[10] = tested on: HCT-15 colon
[11] = tested on: CCRF-CEM leukemia
[12] = tested on: COLO 205 colon
[13] = tested on: M19-MEL melanoma
[14] = tested on: EKVX NSCLC
[15] = tested on: U251 CNS
[16] = tested on: 786-0 renal
[17] = tested on: OVCAR-8 ovarian
[18] = tested on: HOP-62 NSCLC
[19] = tested on: IGROV1 ovarian
[20] = tested on: M14 melanoma
[21] = tested on: ACHN renal
[22] = tested on: DMS 114 small cell lung
[23] = tested on: OVCAR-4 ovarian
[24] = tested on: SN12C renal
[25] = tested on: SNB-19 CNS
[26] = tested on: HCC-2998 colon
[27] = tested on: SW-620 colon
[28] = tested on: CAKI-1 renal
[29] = tested on: LOX IMVI melanoma
[30] = tested on: HOP-92 NSCLC
[31] = tested on: RXF 393 renal
[32] = tested on: A498 renal
[33] = tested on: UACC-257 melanoma
[34] = tested on: SF-539 CNS
[35] = tested on: SK-MEL-2 melanoma
[36] = tested on: KM20L2 colon
[37] = tested on: A549 NSCLC
[38] = tested on: NCI-H460 lung
[39] = tested on: OVCAR-5 ovarian
[40] = tested on: SNB-75 CNS
[41] = tested on: HL-60(TB) leukemia
[42] = tested on: MALME-3M melanoma
[43] = tested on: SK-MEL-5 melanoma
[44] = tested on: XF 498 CNS
[45] = tested on: UO-31 renal
[46] = tested on: RPMI-8226 leukemia
[47] = tested on: LXFL 529 NSCLC
[48] = tested on: DMS 273 small cell lung
[49] = tested on: HOP-18 NSCLC
[50] = tested on: SF-295 CNS
[51] = tested on: SNB-78 CNS
[52] = tested on: NCI-H23 lung
[53] = tested on: SK-MEL-28 melanoma
[54] = tested on: OVCAR-3 ovarian
[55] = tested on: SK-OV-3 ovarian
[56] = tested on: K-562 leukemia
[57] = tested on: TK-10 renal
[58] = tested on: HCT-116 colon

## C[C@]12CCc3nonc3C1CC[C@@H]1C2CC[C@]2(C)C(=O)CCC12 (stereo not given in full)
[1]
  TGI: > 100 µM
[2]
  TGI: 72.2 µM
[3]
  TGI: 61.6 µM
[4]
  TGI: > 100 µM
[5]
  TGI: 68.3 µM
[6]
  TGI: 37.4 µM
[7]
  TGI: > 100 µM
[8]
  TGI: 37.9 µM
[9]
  TGI: > 100 µM
[10]
  TGI: > 100 µM
[11]
  TGI: 57.8 µM
[12]
  TGI: 56.3 µM
[13]
  TGI: 57.2 µM
[14]
  TGI: 69.4 µM
[15]
  TGI: > 100 µM
[16]
  TGI: > 100 µM
[17]
  TGI: > 100 µM
[18]
  TGI: > 100 µM
[19]
  TGI: > 100 µM
[20]
  TGI: > 100 µM
[21]
  TGI: > 100 µM
[22]
  TGI: 60 µM
[23]
  TGI: > 100 µM
[24]
  TGI: > 100 µM
[25]
  TGI: > 100 µM
[26]
  TGI: 71.2 µM
[27]
  TGI: > 100 µM
[28]
  TGI: 49.2 µM
[29]
  TGI: 47.6 µM
[30]
  TGI: 55.3 µM
[31]
  TGI: > 100 µM
[32]
  TGI: 78.8 µM
[33]
  TGI: > 10 µM
[34]
  TGI: 49.8 µM
[35]
  TGI: 46.8 µM
[36]
  TGI: 82.4 µM
[37]
  TGI: 82.5 µM
[38]
  TGI: > 100 µM
[39]
  TGI: > 100 µM
[40]
  TGI: 94.5 µM
[41]
  TGI: 39.2 µM
[42]
  TGI: 65.7 µM
[43]
  TGI: 34.2 µM
[44]
  TGI: 45 µM
[45]
  TGI: 68.2 µM
[46]
  TGI: 46.5 µM
[47]
  TGI: > 100 µM
[48]
  TGI: 51.1 µM
[49]
  TGI: > 100 µM
[50]
  TGI: 83.9 µM
[51]
  TGI: > 100 µM
[52]
  TGI: > 100 µM
[53]
  TGI: > 10 µM
[54]
  TGI: 58.7 µM
[55]
  TGI: > 100 µM
[56]
  TGI: > 100 µM
[57]
  TGI: > 10 µM

## CCN(C1=CC(=O)NC2CCCCN12)c1ccccc1 (stereo not given)
[1]
  TGI: > 100 µM
[3]
  TGI: > 100 µM
[4]
  TGI: > 100 µM
[5]
  TGI: > 100 µM
[6]
  TGI: > 100 µM
[7]
  TGI: > 100 µM
[8]
  TGI: > 100 µM
[10]
  TGI: > 100 µM
[11]
  TGI: > 100 µM
[12]
  TGI: > 100 µM
[13]
  TGI: > 100 µM
[14]
  TGI: > 100 µM
[15]
  TGI: > 100 µM
[16]
  TGI: > 100 µM
[17]
  TGI: > 100 µM
[18]
  TGI: > 100 µM
[19]
  TGI: > 100 µM
[20]
  TGI: > 100 µM
[21]
  TGI: > 100 µM
[22]
  TGI: > 100 µM
[23]
  TGI: > 100 µM
[24]
  TGI: > 100 µM
[25]
  TGI: > 100 µM
[26]
  TGI: > 100 µM
[27]
  TGI: > 100 µM
[28]
  TGI: > 100 µM
[29]
  TGI: > 100 µM
[31]
  TGI: > 100 µM
[32]
  TGI: > 100 µM
[33]
  TGI: > 100 µM
[34]
  TGI: > 100 µM
[35]
  TGI: > 100 µM
[36]
  TGI: > 100 µM
[37]
  TGI: > 100 µM
[38]
  TGI: > 100 µM
[39]
  TGI: > 100 µM
[40]
  TGI: > 100 µM
[42]
  TGI: > 100 µM
[43]
  TGI: > 100 µM
[44]
  TGI: > 100 µM
[46]
  TGI: > 100 µM
[47]
  TGI: > 100 µM
[48]
  TGI: > 100 µM
[49]
  TGI: > 100 µM
[50]
  TGI: > 100 µM
[58]
  TGI: > 100 µM
[51]
  TGI: > 100 µM
[52]
  TGI: > 100 µM
[53]
  TGI: > 100 µM
[54]
  TGI: > 100 µM
[55]
  TGI: > 100 µM
[56]
  TGI: > 100 µM
[57]
  TGI: > 100 µM
